# Data: patent publication US20240360114A1 (SIRONAX LTD., priority 2021, published 2024)
# System: HT-1080 cells
# Test: HT-1080 cell viability assay (ferroptosis induced by RSL3, Cell Titer-Glo)
# Format: cell-based
# Settings: ferroptosis inducer RSL3, 20 hours, ferroptosis inhibitory activity, Table 2
# Method in brief: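 EC50 fitted by sigmoidal dose-response regression on luminescent viability data normalized to untreated cells. Compounds ran as a 10-point, 3-fold series from 1.1 μM alongside RSL3 for 20 hours, after overnight seeding.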
Structure (SMILES),"EC50 (Homo sapiens, HT-1080, 20 h) [nM]",further results
"CC1(C)CCC(c2ccc(NC3CC(NC(=O)[C@H]4CNC(=O)N4)C3)cc2)CC1 (stereo partly drawn) [Compound 129, (R)—N-(3-((4-(4,4-dimethylcyclohexyl)phenyl)amino)cyclobutyl)-2-oxoimidazolidine-4-carboxamide]",100 to 1000,
"CC(C)(C)c1ccc(NCc2cnc[nH]2)cc1 [Compound 130, N-((1H-imidazol-5-yl)methyl)-4-(tert-butyl)aniline]",100 to 1000,
"CC1(C)CCC(c2ccc(NC3CCNCC3)cc2)CC1 [Compound 131, N-(4-(4,4-dimethylcyclohexyl)phenyl)piperidin-4-amine]",0.1 to 100,
"NC1CC(Nc2ccc(C3CCCCC3)cc2)C1 (centres unmarked) [Compound 132, N1-(4-cyclohexylphenyl)cyclobutane-1,3-diamine]",0.1 to 100,
"NC1CCC(Nc2ccc(C3CCCCC3)cc2)CC1 (centres unmarked) [Compound 133, N1-(4-cyclohexylphenyl)cyclohexane-1,4-diamine]",,EC50: 0.1 to 100 nM
"NC1CCC(Nc2ccc(F)cc2)CC1 (centres unmarked) [Compound 134, N1-(4-fluorophenyl)cyclohexane-1,4-diamine]",1000 to 10000,
"CCCCCc1ccc(NC2CCC(N)CC2)cc1 (centres unmarked) [Compound 136, N1-(4-pentylphenyl)cyclohexane-1,4-diamine]",0.1 to 100,
"CCCCc1ccc(NC2CCC(N)CC2)cc1 (centres unmarked) [Compound 137, N1-(4-butylphenyl)cyclohexane-1,4-diamine]",0.1 to 100,
"CC1CC(c2ccc(NC3CCC(N)CC3)cc2)CC(C)O1 (centres unmarked) [Compound 138, N1-(4-(2,6-dimethyltetrahydro-2H-pyran-4-yl)phenyl)cyclohexane-1,4-diamine]",100 to 1000,
"CC(N)C1CCC(Nc2ccc(C3CCC(C)(C)CC3)cc2)CC1 (centres unmarked) [Compound 140, N-(4-(1-aminoethyl)cyclohexyl)-4-(4,4-dimethylcyclohexyl)aniline]",0.1 to 100,
"CC1(C)CCC(c2ccc(NC3CNC(=O)C3)cc2)CC1 (centres unmarked) [Compound 141, 4-((4-(4,4-dimethylcyclohexyl)phenyl)amino)pyrrolidin-2-one]",100 to 1000,
"CC1(C)CCC(c2ccc(NC3CC(C(N)=O)C3)cc2)CC1 (centres unmarked) [Compound 145, 3-((4-(4,4-dimethylcyclohexyl)phenyl)amino)cyclobutane-1-carboxamide]",0.1 to 100,
"CNC1CCC(Nc2ccc(C(C)(C)C)cc2)CC1 (centres unmarked) [Compound 147, N1-(4-(tert-butyl)phenyl)-N4-methylcyclohexane-1,4-diamine]",0.1 to 100,
"CC(C)(C)c1ccc(NC2CCCNC2)cc1 (centres unmarked) [Compound 150, N-(4-(tert-butyl)phenyl)piperidin-3-amine]",100 to 1000,
CC1(C)CCC(c2ccc(NC3CCC(O)C3)cc2)CC1 (centres unmarked) [Compound 151],0.1 to 100,
"CC(C)(C)c1ccc(NC2CCCCC2N)cc1 (centres unmarked) [Compound 152, N1-(4-(tert-butyl)phenyl)cyclohexane-1,2-diamine]",100 to 1000,
"CC1(C)CCC(c2ccc(NC3CCN(C(=O)[C@H]4CNC(=O)N4)CC3)cc2)CC1 [Compound 154, (R)-4-(4-((4-(4,4-dimethylcyclohexyl)phenyl)amino)piperidine-1-carbonyl) imidazolidin-2-one]",100 to 1000,
CC1(C)CCC(c2ccc(NC3CCC(NC(=O)[C@H]4CNC(=O)N4)CC3)cc2)CC1 (some centres unmarked) [Compound 156C],0.1 to 100,
"CC1(C)CCC(c2ccc(NCCNC(=O)[C@H]3CNC(=O)N3)cc2)CC1 [Compound 158, (R)—N-(2-((4-(4,4-dimethylcyclohexyl)phenyl)amino)ethyl)-2-oxoimidazolidine-4-carboxamide]",100 to 1000,
"NC1CCC(Nc2ccc(F)c(F)c2)CC1 (centres unmarked) [Compound 160, N1-(3,4-difluorophenyl)cyclohexane-1,4-diamine]",1000 to 10000,
"NC1CCC(Nc2ccc(Cl)cc2)CC1 (centres unmarked) [Compound 161, N1-(4-chlorophenyl)cyclohexane-1,4-diamine]",1000 to 10000,

Structure (SMILES),"EC50 (Homo sapiens, HT-1080, 20 h) [nM]",further results
"NC1CCC(Nc2ccc3c(c2)CCC3)CC1 (centres unmarked) [Compound 162, N1-(2,3-dihydro-1H-inden-5-yl)cyclohexane-1,4-diamine]",100 to 1000,
"NC1CCC(Nc2cccnc2)CC1 (centres unmarked) [Compound 163, N1-(pyridin-3-yl)cyclohexane-1,4-diamine]",1000 to 10000,
"NC1CCC(Nc2cccc3c2CCO3)CC1 (centres unmarked) [Compound 164, N1-(2,3-dihydrobenzofuran-4-yl)cyclohexane-1,4-diamine]",1000 to 10000,
"NC1CCC(Nc2ccc(Br)cc2)CC1 (centres unmarked) [Compound 165, N1-(4-bromophenyl)cyclohexane-1,4-diamine]",1000 to 10000,
"NC1CCC(Nc2ccc3c(c2)OCC3)CC1 (centres unmarked) [Compound 166, N1-(2,3-dihydrobenzofuran-6-yl)cyclohexane-1,4-diamine]",1000 to 10000,
"CC1(C)CCC(c2ccc(NC3CCC(CN)CC3)cn2)CC1 (centres unmarked) [Compound 167, N-(4-(aminomethyl)cyclohexyl)-6-(4,4-dimethylcyclohexyl)pyridin-3-amine]",100 to 1000,
"CC(C)(C)c1ccc(NC2CCC(NCC(F)(F)F)CC2)cc1 (centres unmarked) [Compound 168A, N-(4-(tert-butyl)phenyl)-N-(2,2,2-trifluoroethyl)cyclohexane-1,4-diamine]",1000 to 10000,
"COCCNC1CCC(Nc2ccc(C(C)(C)C)cc2)CC1 (centres unmarked) [Compound 169, 1-N-(4-(tert-butyl)phenyl)-N4-(2-methoxyethyl)cyclohexane-1,4-diamine]",100 to 1000,
"NC1CCC(Nc2ccc(C3CCOCC3)cc2)CC1 (centres unmarked) [Compound 170, 1-N-(4-(tetrahydro-2H-pyran-+-yl)phenyl)cyclohexane-1,4-diamine]",1000 to 10000,
"CC1(C)CCC(c2ccc(NCCCN3CCCC3)cc2)CC1 [Compound 171, 4-(4,4-dimethylcyclohexyl)-N-(3-(pyrrolidin-1-yl)propyl)aniline]",0.1 to 100,
"CCC(C)(C)c1ccc(NC2CCC(C)(N)CC2)cc1 (centres unmarked) [Compound 172, 1-methyl-N4-(4-(tert-pentyl)phenyl)cyclohexane-1,4-diamine]",0.1 to 100,
"CCCCN(CCCC)CCNc1ccc(C2CCCCC2)cc1 [Compound 173, N1,N1-dibutyl-N2-(4-cyclohexylphenyl)ethane-1,2-diamine]",,EC50 (Homo sapiens): 100 to 1000 nM
"CCCOc1ccc(NC2CCC(N)CC2)cc1 (centres unmarked) [Compound 174, N1-(4-propoxyphenyl)cyclohexane-1,4-diamine]",0.1 to 100,
"CC(C)(C)c1ccc(NCCn2ccnc2)cc1 [Compound 175, N-(2-(1H-imidazol-1-yl)ethyl)-4-(tert-butyl)aniline]",1000 to 10000,
"CC1(C)CCC(c2ccc(NCCN)cc2)CC1 [Compound 176, N1-(4-(4,4-dimethylcyclohexyl)phenyl)ethane-1,2-diamine]",100 to 1000,
"CC(C)(C)c1ccc(NCCc2cnc[nH]2)cc1 [Compound 177, N-(2-(1H-imidazol-5-yl)ethyl)-4-(tert-butyl)aniline]",1000 to 10000,
"CC(C)(C)c1ccc(NC2CCN(C(N)=O)CC2)cc1 [Compound 178, 4-((4-(tert-butyl)phenyl)amino)piperidine-1-carboxamide]",,EC50 (Homo sapiens): 1000 to 10000 nM
"CC(C)(C)c1ccc(NCCOCCO)cc1 [Compound 179, 2-(2-((4-(tert-butyl)phenyl)amino)ethoxy) ethan-1-ol]",1000 to 10000,
"CC(C)(C)c1ccc(NC2CCN(S(N)(=O)=O)CC2)cc1 [Compound 180, 4-((4-(tert-butyl)phenyl)amino)piperidine-1-sulfonamide]",,EC50 (Homo sapiens): 100 to 1000 nM
"NC1CCC(Nc2ccc(C3CC3)cc2)CC1 (centres unmarked) [Compound 181, N1-(4-cyclopropylphenyl)cyclohexane-1,4-diamine]",100 to 1000,
